The source of these data is PubChem BioAssay (NCI).

SMILES strings stand for the structures. “And” between values parts separate entries of the source, which are not always exact repeats. Identical values can stand only once.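 Following 48 hours of exposure in 96-well plates, responses at five concentrations were used to interpolate endpoints linearly. GI50 is the concentration that inhibits growth by half. At the TGI there is no net growth.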

Test in all cases: growth of human tumour cells (NCI), 48 h
For test [1], the system named is DU-145 prostate.
Test [2] relates to UO-31 renal.
Test [3] has as its system SK-MEL-28 melanoma.
Test [4] relates to HCT-116 colon.
The subject of test [5] is SF-539 CNS.
Test [6] concerns TK-10 renal.
The test system of test [7] is RPMI-8226 leukemia.
Test [8] deals with LOX IMVI melanoma.
The subject of test [9] is KM12 colon.
Test [10] has as its system ACHN renal.
In test [11] the test system is A498 renal.
Test [12] has as its system SR leukemia.

In the case of `O=C(O)C1=CN(c2ccncc2)C(c2ccco2)=CC1c1ccccc1[N+](=O)[O-]` (centres undefined), the TGI amounted to 26.7 µM in [1]; 23.3 µM in test [2]; 40.9 µM in test [3]; 3.66 µM in [4]; 10.3 µM in test [5]; 15.9 µM in test [6]. For the same compound, the TGI in test [7] was above 24.5 µM; in test [8], 3.85 µM; in [9], 3.4 µM; in test [10], 3.59 µM; in test [11] it was 28.7 µM.
Consider `O=c1oc2ccc3ccccc3c2cc1-c1cn2c(n1)sc1ccccc12`, for which the TGI in [1], in test [2], in test [3], in test [4], in test [6] and in test [7] was above 100 µM throughout. For the same compound, the TGI in [8], in [9], in test [10] and in [11] was above 100 µM in each case.
Consider `CCC(c1ccc(OC)cc1)C1NC(=S)NC1=O` (centres undefined), for which the TGI in test [1], in [2], in [3], in [4], in test [5] and in [6] was above 50 µM each time. Also, the TGI in test [7], in test [8], in [9], in test [10] and in [11] was above 50 µM each time.
On to `COC(=O)[C@]1(C)CCC[C@]2(C)[C@@H](CCC(=O)C(C)C)[C@]3(C=O)O[C@@H]3C[C@H]21`, for which the TGI is above 100 µM in test [1]; 48.4 µM in [2]; above 100 µM in [3]; 57.7 µM in test [4]; above 100 µM in test [5]; above 100 µM in test [6]. Besides, the TGI in test [8] is 92.3 µM; in test [9], above 100 µM; in test [12], above 100 µM; in [10] it was 57.3 µM.
On to `O=C1Nc2ccccc2/C1=C\c1c(-c2ccccc2)nc2n1CCS2`, for which the TGI in [1] is 40.7 µM; in [2], 80.6 µM; in test [3] it was above 100 µM; in test [4] it was 49.2 µM; in test [5], 39.1 µM; in [6] it was 34.3 µM. Further, the TGI in test [7] was 65.8 µM; in test [8], 38.6 µM; in [9] it was 37.5 µM; in test [10], above 100 µM; in test [11] it was 68.8 µM.
For the compound `CC1(C)SCc2nc3ccccc3n21`, the TGI in test [1], in test [2], in [3], in [4], in [5] and in test [6] was above 100 µM in each case. For the same compound, the TGI in test [7], in [8], in [9], in test [10] and in test [11] was above 100 µM in each case.
Consider `Cc1c(-c2nc(N)c(C#N)c(N)c2C#N)c(=O)oc2ccccc12`, for which the TGI in [1], in test [2], in test [3], in test [4], in [5] and in test [6] was above 100 µM in each case. Moreover, the TGI is 62.4 µM in test [7]; above 100 µM in test [8]; above 100 µM in [9]; above 100 µM in [10]; above 100 µM in [11].
Consider `CN1C(=O)CN2C(Cl)(Cl)C2(c2ccccc2)c2cc(Cl)ccc21` (centres undefined), for which the TGI in [2], in [3], in test [4], in test [6], in test [7] and in test [8] was above 100 µM each time. Further, the TGI in test [9] and in test [10] was above 100 µM in each case.
For `NCCCn1c2c(c3ccc([N+](=O)[O-])cc3c1=O)C(=O)c1cc(F)ccc1-2`, the GI50 is below 0.0104 µM in test [1]; 0.0324 µM in test [2]; 0.229 µM in test [3]; below 0.0112 µM in test [4]; 0.0288 µM in test [5]; 0.372 µM in test [6]. Further, the GI50 in [12] is below 0.01 µM; in test [10], 0.0241 µM. Further, the TGI in [1] came out at 0.451 µM; in test [2] it was 0.19 µM; in [3], 1.54 µM; in test [4], 0.134 µM; in test [5] it was 0.101 µM; in [6] it was 2.7 µM. The TGI in [12] worked out at 0.0205 µM; in test [10], 0.142 µM.
As for `CC(CNC(=O)c1ccccc1)(CNC(=O)c1ccccc1)[N+](=O)[O-]`, the TGI in test [1], in test [2], in test [4], in test [5], in test [6] and in [7] was above 100 µM in each case. Besides, the TGI in [9], in test [12] and in test [10] was above 100 µM throughout.
On to `Cc1cc(C)c(NC(=O)/C=C/c2ccccc2)c(C)c1`, for which the TGI in [2], in test [3], in [5], in test [6], in test [7] and in test [9] was above 100 µM each time. Besides, the TGI in test [12] and in [10] was above 100 µM each time.
With `CN1C(C)(C)CC(=O)C(Br)C1(C)C` (centres undefined), the TGI in test [1], in [2], in [3], in [6], in test [7] and in test [8] was above 100 µM in each case. Moreover, the TGI in test [9], in test [12] and in test [10] was above 100 µM in each case.
As for `CCCCCCCCCCCCCCCC(=O)Nc1ccn(C2CCC(COP(=O)(O)OCC3OC(n4cc(F)c(=O)[nH]c4=O)CC3OC(C)=O)O2)c(=O)n1` (centres undefined), the TGI in test [1] was above 100 µM; in test [2] it was 28.9 µM; in test [3], 43.8 µM; in test [4] it was 34.1 µM; in [5], above 23.3 µM; in test [6], above 76.7 µM. Besides, the TGI in test [7] is 52.9 µM; in test [8], 39.8 µM; in test [9], 34.8 µM; in test [10], above 100 µM; in test [11] it was above 100 µM.
In the case of `O=C1/C(=C/c2ccc(Cl)cc2)N=C(c2ccccc2)N1/N=C/c1ccccc1O`, the TGI in test [1] was above 100 µM; in test [2], 43.4 µM; in test [3], 62.9 µM; in test [4], 15.2 µM; in test [5] it was 26.6 µM; in test [6], 12.6 µM. Besides, the TGI in [7] was determined as 24.8 µM; in test [8], 31.4 µM; in test [9], 33.3 µM; in test [10] it was 21.2 µM.
`C/C1=C/C[C@@H](/C(C)=C/c2csc(C)n2)OC(=O)C[C@H](O)C(C)(C)C(=O)[C@H](C)[C@@H](O)[C@@H](C)CCC1`: the TGI was below 0.0001 µM in test [1]; 0.181 µM in test [2]; 0.173 µM in test [4]; below 0.0001 µM in test [5]; 0.4 µM in [6]; 0.217 µM in test [7]. Also, the TGI in test [8] was 0.143 µM; in test [9] it was 0.196 µM; in [10] it was 0.323 µM.
As to `Oc1c(Cl)c(Cl)c(O)c(CCNc2nccs2)c1Cl`, the TGI in test [1] worked out at 19.8 µM; in [2], 32.9 µM; in test [3] it was 67.9 µM; in test [4], 23.6 µM; in test [5], 4.14 µM; in test [6], 33 µM. Further, the TGI in test [9] worked out at 35.8 µM; in test [12], 25.6 µM; in test [10] it was 23.4 µM.
`COC(=O)[C@@H](OC(C)=O)[C@@H](OC(C)=O)c1nnc2ccc(Cl)nn12`: the TGI in test [1], in test [3], in test [4], in test [5], in test [6] and in [7] was above 100 µM throughout. In addition, the TGI in test [8], in [9], in test [10] and in test [11] was above 100 µM throughout.
As for `CCCCCCCCCC/C=C/C=O`, the TGI in test [2], in test [3], in test [4], in [5], in [6] and in test [8] was above 100 µM each time. The TGI in test [9], in test [12], in [10] and in test [11] was above 100 µM throughout.
In the case of `C=CC(=O)NCNC(=O)C=C`, the TGI in [2], in [3], in [4], in [5], in test [6] and in test [7] was above 100 µM each time. Also, the TGI in [8], in [9], in test [12], in test [10] and in test [11] was above 100 µM throughout.
For `c1ccc2cc(CNCCCCNCCCNCc3ccc4ccccc4c3)ccc2c1`, the TGI was 2.53 µM in test [1]; 2.83 µM in [2]; 3.34 µM in test [3]; 0.318 µM in [4]; 3.47 µM in test [5]; 3.39 µM in test [6]. Besides, the TGI is 0.712 µM in test [7]; 0.358 µM in [8]; 0.97 µM in test [9]; 2.92 µM in test [10]; 4.42 µM in test [11].
Take `C(=N\NC1=NCCN1)/c1cccc2cc3ccncc3nc12`: the TGI in test [1] came to 19.9 µM; in test [2], 14.2 µM; in [3] it was 22.8 µM; in [4], 3.19 µM; in test [5], 21.2 µM; in [6] it was 22.2 µM. The TGI came to 4.44 µM in test [7]; 3.39 µM in [8]; 17.9 µM in [9]; 13.6 µM in [10]; 23.9 µM in test [11].
Regarding `O=[N+]([O-])c1ccc(CN=C2NNS(=O)(=O)c3ccccc32)cc1`, the TGI in [2], in [4], in test [5], in [7], in [8] and in test [9] was above 100 µM in each case. Moreover, the TGI in [12] was 99.7 µM; in [10], above 100 µM; in test [11], above 100 µM.
`O=C(Oc1c(Br)cc(Br)cc1C(=O)Oc1ccccc1)C(=O)Oc1c(Br)cc(Br)cc1C(=O)Oc1ccccc1`: the TGI in [1] was above 100 µM; in [2], 49.7 µM; in [3], above 100 µM; in test [4], 31.6 µM; in test [5] it was 51.8 µM; in [6], above 100 µM. In addition, the TGI in [7] is 52.9 µM; in test [9] it was 84.1 µM; in test [12], 56.1 µM; in test [10] it was above 100 µM.
Take `O=C1CCCC2=C1CC1=C(CCCC1=O)N2c1ccc([N+](=O)[O-])cc1`: the TGI in test [2], in [3], in test [5], in test [6], in [7] and in test [8] was above 100 µM in each case. The TGI in test [9], in test [12], in test [10] and in test [11] was above 100 µM in each case.
In the case of `Nc1nc(N)c2ncn(-c3ccccc3)c2n1`, the TGI in test [1], in test [2], in test [3], in test [4], in [5] and in [6] was above 100 µM in each case. The TGI in test [7], in test [8], in test [9], in test [10] and in test [11] was above 100 µM each time. Further, in test [5], the GI50 is > 100 µM and 49.2 µM.
`COc1cc2cc3c4cc(OC)c(OC)cc4cc[n+]3c(C)c2cc1OC`: the TGI in [1], in test [2], in [3], in test [4], in test [5] and in [6] was above 100 µM each time. In addition, the TGI in [7], in test [8], in test [9], in test [10] and in [11] was above 100 µM in each case.
